According to patent publication US20120122928A1 (priority 2010, published 2012):
Marks after values point to notes of the source that are not given here.

How the values were obtained:
Phytophthora infestans = type: in vivo; conditions: young tomato plants sprayed, active ingredient concentration of 100 (unit not given); inoculated 1 day after treatment; evaluation 7 days after inoculation; 100% = no infection
Plasmopara viticola = assay: Plasmopara test (grapevine) / protective; type: in vivo; conditions: young grapevine plants sprayed, active ingredient concentration 10 ppm; evaluation 6 days after inoculation; 100% = no infection
Protocol: Plasmopara Test (Grapevine)/Protective
To produce an appropriate active ingredient formulation, 1 part by weight of active ingredient is mixed with the specified amounts of solvent and emulsifier, and the concentrate is diluted with water to the desired concentration.
To test for protective efficacy, young plants are sprayed with the active ingredient formulation at the stated application rate. After the spray coating has dried on, the plants are inoculated with an aqueous spore suspension of Plasmopara viticola and then remain in an incubation cabin at approx. 20° C. and 100% relative air humidity for 1 day. Subsequently, the plants are placed in a greenhouse at approx. 21° C. and approx. 90% air humidity for 4 days. The plants are then moistened and placed in an incubation cabin for 1 day.
Evaluation follows 6 days after the inoculation. 0% means an efficacy which corresponds to that of the control, whereas an efficacy of 100% means that no infection is observed.
In this test, the following inventive compounds show, at an active ingredient concentration of 10 ppm, an efficacy of 70% or more: […]

[1] = LC-MS determination in the acidic range, pH 2.7, 0.1% aqueous formic acid and acetonitrile

| SMILES | % eff. (Phytophthora infestans) | % eff. (Plasmopara viticola) | Log P [a] [1] |
| --- | --- | --- | --- |
| CC(C)(c1ccccc1)C1CC(c2csc(C3CCN(C(=O)Cn4nc(C(F)F)cc4C(F)F)CC3)n2)=NO1 (stereo not drawn) [I-4] | 100% | 97% | 3.79^[a] |
| O=C(Cn1nc(C(F)F)cc1C(F)F)N1CCC(c2nc(C3=NOC(CSc4ccccc4Cl)C3)cs2)CC1 (stereo not drawn) [I-61] | 91% | 93% | 3.68 |
| O=C(Nc1cc(C(F)F)ccc1C(F)F)N1CCC(c2nc(C3=NOC(C(F)c4c(F)cccc4F)C3)cs2)CC1 (stereo not drawn) [I-30] | 95% | 100% | 3.60^[a] |
| CON=Cc1ccccc1OCC1CC(c2csc(C3CCN(C(=O)Cn4nc(C(F)F)cc4C(F)F)CC3)n2)=NO1 (mixture of isomers) [I-60] | 94% |  | 3.39^[a]; 3.39^[b] |
| Cc1ccc(C)c(NC(=S)N2CCC(c3nc(C4=NOC(C(F)c5ccccc5)C4)cs3)CC2)c1 (stereo not drawn) [I-39] | 100% | 78% | 3.61^[a] |
| Fc1cccc(F)c1C(F)C1CC(c2csc(C3CCN(C(=S)Cn4nc(C(F)F)cc4C(F)F)CC3)n2)=NO1 (stereo not drawn) [I-18] | 95% | 100% | 3.81^[a] |
| Cc1ccc(C)c(NC(=O)N2CCC(c3nc(C4=NOC(COc5c(Cl)cccc5Cl)C4)cs3)CC2)c1 (stereo not drawn) [I-56] | 94% | 100% | 3.89 |
| CC(C)(c1c(F)cccc1F)C1CC(c2csc(C3CCN(C(=O)Cn4nc(C(F)F)cc4C(F)F)CC3)n2)=NO1 (stereo not drawn) [I-66] | 94% | 100% | 4.05 |
| Cc1cc(C(F)(F)F)nn1CC(=O)N1CCC(c2nc(C3=NOC(COc4c(F)cccc4F)C3)cs2)CC1 (stereo not drawn) [I-54] | 100% | 97% | 3.34 |
| Cc1ccc(C)c(NC(=O)N2CCC(c3nc(C4=NOC(COc5ccccc5)C4)cs3)CC2)c1 (stereo not drawn) [I-41] | 100% | 94% | 3.36 |
| O=C(Cn1nc(C(F)F)cc1C(F)F)N1CCC(c2nc(C3=NOC(COc4c(Cl)cccc4Cl)C3)cs2)CC1 (stereo not drawn) [I-1] | 100% | 100% | 3.7 |
| FC(F)c1cc(C(F)F)n(CC(=S)N2CCC(c3nc(C4=NOC(COc5ccccc5)C4)cs3)CC2)n1 (stereo not drawn) [I-34] | 100% | 96% | 3.73 |
| O=C(Cn1nc(C(F)F)cc1C(F)F)N1CCC(c2nc(C3=NOC(COc4c(F)cccc4Cl)C3)cs2)CC1 (stereo not drawn) [I-74] | 100% | 100% | 3.44 |
| Cc1cc(C(F)(F)F)nn1CC(=O)N1CCC(c2nc(C3=NOC(C(F)(F)c4ccccc4)C3)cs2)CC1 (stereo not drawn) [I-25] | 100% | 94% | 3.55^[a] |
| Cc1cc(C(F)(F)F)nn1CC(=O)N1CCC(c2nc(C3=NOC(C(C)(C)c4c(F)cccc4F)C3)cs2)CC1 (stereo not drawn) [I-62] | 91% | 96% | 4.09 |
| O=C(Cn1nc(C(F)F)cc1C(F)F)N1CCC(c2nc(C3=NOC(C(F)(F)c4cccs4)C3)cs2)CC1 (stereo not drawn) [I-57] | 95% | 100% | 3.33^[a] |
| Cc1cc(C(F)F)nn1CC(=O)N1CCC(c2nc(C3=NOC(COc4c(Cl)cccc4Cl)C3)cs2)CC1 (stereo not drawn) [I-45] | 93% | 100% | 3.35 |
| Cc1ccc(Cl)cc1NC(=O)N1CCC(c2nc(C3=NOC(COc4ccccc4)C3)cs2)CC1 (stereo not drawn) [I-33] | 100% |  | 3.54 |
| O=C(Cn1nc(C(F)F)cc1C(F)F)N1CCC(c2nc(C3=NOC(C(O)(c4ccccc4)C(F)(F)F)C3)cs2)CC1 (stereo not drawn) [I-49] | 97% |  | 3.2 |
| O=C(Cn1nc(C(F)F)cc1C(F)F)N1CCC(c2nc(C3=NOC(CSc4ccccc4F)C3)cs2)CC1 (stereo not drawn) [I-55] | 94% | 100% | 3.54 |
| O=C(Cn1nc(C(F)F)cc1C(F)F)N1CCC(c2nc(C3=NOC(COc4ccccc4Cl)C3)cs2)CC1 (stereo not drawn) [I-71] | 100% | 100% | 3.35 |
| Cc1cc(C(F)(F)F)nn1CC(=O)N1CCC(c2nc(C3=NOC(COc4ccccc4)C3)cs2)CC1 (stereo not drawn) [I-37] | 100% | 97% | 3.27 |
| O=C(Cn1nc(C(F)F)cc1C(F)F)N1CCC(c2nc(C3=NOC(CS(=O)(=O)c4ccccc4)C3)cs2)CC1 (stereo not drawn) [I-7] | 100% | 96% | 2.65^[a]; 2.65^[b] |
| Cc1ccc(C)c(NC(=S)N2CCC(c3nc(C4=NOC(C(F)c5c(F)cccc5F)C4)cs3)CC2)c1 (stereo not drawn) [I-32] | 94% | 78% | 3.80^[a] |

| SMILES | % eff. (Phytophthora infestans) | % eff. (Plasmopara viticola) | Log P [a] [1] |
| --- | --- | --- | --- |
| Cc1ccccc1OCC1CC(c2csc(C3CCN(C(=O)Cn4nc(C(F)F)cc4C(F)F)CC3)n2)=NO1 (stereo not drawn) [I-13] | 100% |  | 3.5 |
| Cc1cc(C(F)(F)F)nn1CC(=O)N1CCC(c2nc(C3=NOC(C(C)(C)c4c(F)cccc4Cl)C3)cs2)CC1 (stereo not drawn) [I-67] | 94% | 100% | 4.43 |
| Cc1cc(C(F)(F)F)nn1CC(=O)N1CCC(c2nc(C3=NOC(C(F)(F)c4c(F)cccc4F)C3)cs2)CC1 (stereo not drawn) [I-28] | 100% | 98% | 3.51^[a] |
| O=C(Cn1nc(C(F)F)cc1C(F)F)N1CCC(c2nc(C3=NOC(COc4c(F)cccc4Br)C3)cs2)CC1 (stereo not drawn) [I-75] |  | 98% | 3.67 |
| CN(CC1CC(c2csc(C3CCN(C(=O)Cn4nc(C(F)F)cc4C(F)F)CC3)n2)=NO1)c1ccccc1 (stereo not drawn) [I-14] | 95% |  | 3.47 |
| CC(=O)c1ccccc1OCC1CC(c2csc(C3CCN(C(=O)Cn4nc(C(F)F)cc4C(F)F)CC3)n2)=NO1 (stereo not drawn) [I-12] | 100% | 70% | 2.93 |
| O=C(Cn1nc(C(F)F)cc1C(F)F)N1CCC(c2nc(C3=NOC(CSc4ccccc4Br)C3)cs2)CC1 (stereo not drawn) [I-63] | 91% | 96% | 3.72 |
| Cc1ccc(C)c(NC(=S)N2CCC(c3nc(C4=NOC(C(F)(F)c5c(F)cccc5F)C4)cs3)CC2)c1 (stereo not drawn) [I-27] | 90% | 92% | 3.81^[a] |
| O=C(Cn1nc(C(F)F)cc1C(F)F)N1CCC(c2nc(C3=NOC(CSc4c(Cl)cccc4Cl)C3)cs2)CC1 (stereo not drawn) [I-58] | 94% | 100% | 3.99 |
| O=C(Cn1nc(C(F)F)cc1C(F)F)N1CCC(c2nc(C3=NOC(C(F)c4ccccc4)C3)cs2)CC1 (stereo not drawn) [I-5] | 100% | 100% | 3.23^[a] |
| O=C(Cn1nc(C(F)F)cc1C(F)F)N1CCC(c2nc(C3=NOC(C(F)(F)c4c(F)cccc4F)C3)cs2)CC1 (stereo not drawn) [I-22] | 95% | 100% | 3.47^[a] |
| O=C(Cn1nc(C(F)F)cc1C(F)F)N1CCC(c2nc(C3=NOC(COc4ccccc4C=NO)C3)cs2)CC1 (mixture of isomers) [I-64] | 95% | 73% | 2.62 |
| Cc1cc(C(F)F)nn1CC(=O)N1CCC(c2nc(C3=NOC(COc4c(F)cccc4F)C3)cs2)CC1 (stereo not drawn) [I-48] |  | 96% | 3.01 |
| O=C(Cn1nc(C(F)F)cc1C(F)F)N1CCC(c2nc(C3=NOC(C(O)c4ccccc4)C3)cs2)CC1 (stereo not drawn) [I-8] | 100% | 93% | 2.53^[a] |
| C[Si](C)(c1ccccc1)C1CC(c2csc(C3CCN(C(=O)Cn4nc(C(F)F)cc4C(F)F)CC3)n2)=NO1 (stereo not drawn) [I-40] | 100% | 92% | 4.01 |
| O=C(Cn1nc(C(F)F)cc1C(F)F)N1CCC(c2nc(C3=NOC(C(F)c4c(F)cccc4F)C3)cs2)CC1 (stereo not drawn) [I-17] | 95% | 100% | 3.36^[a] |
| COc1ccccc1OCC1CC(c2csc(C3CCN(C(=O)Cn4nc(C(F)F)cc4C(F)F)CC3)n2)=NO1 (stereo not drawn) [I-26] | 100% | 96% | 3.01 |
| COc1ccc(C)cc1NC(=O)N1CCC(c2nc(C3=NOC(COc4ccccc4)C3)cs2)CC1 (stereo not drawn) [I-38] | 100% |  | 3.59 |
| Cc1ccc(Cl)cc1NC(=O)N1CCC(c2nc(C3=NOC(COc4c(F)cccc4F)C3)cs2)CC1 (stereo not drawn) [I-50] | 92% | 97% | 3.66 |
| Cc1ccc(C)c(CC(=O)N2CCC(c3nc(C4=NOC(COc5ccccc5)C4)cs3)CC2)c1 (stereo not drawn) [I-29] | 100% | 78% | 3.71 |
| O=Cc1ccccc1OCC1CC(c2csc(C3CCN(C(=O)Cn4nc(C(F)F)cc4C(F)F)CC3)n2)=NO1 (stereo not drawn) [I-73] | 90% |  | 2.83^[a]; 2.83^[b] |
| Cc1ccccc1SCC1CC(c2csc(C3CCN(C(=O)Cn4nc(C(F)F)cc4C(F)F)CC3)n2)=NO1 (stereo not drawn) [I-70] | 95% |  | 3.78 |
| CC(C)(c1ccccc1)C1CC(c2csc(C3(F)CCN(C(=O)Cn4nc(C(F)F)cc4C(F)F)CC3)n2)=NO1 (stereo not drawn) [I-11] | 95% |  | 4.03^[a] |
| CC(C)(c1c(F)cccc1Cl)C1CC(c2csc(C3CCN(C(=O)Nc4cc(C(F)F)ccc4C(F)F)CC3)n2)=NO1 (stereo not drawn) [I-53] | 91% |  | 4.53 |
